From US20240052317A1, “Methods for Differentiating Stromal Cells or Pericytes” (Lung Biotechnology PBC, priority 2022, published 2024)
Counter-ions that a name gives are not always drawn.

System: human pulmonary artery endothelial cells (HPAEC)
Experiment: Tube formation assay of test differentiated cells co-cultured with HPAEC
Format: cell-based
Details: co-culture of HPAEC and test differentiated cells, 1 μM imatinib mesylate, FIG. 2
Method: Next, test differentiated cells were further characterized with a tube formation assay using the following protocol. Test differentiated cells were co-cultured with human pulmonary artery endothelial cells (HPAEC) with or without 1 μM imatinib mesylate to inhibit angiogenesis, and tube formation was observed. Specifically, the wells of 96-well plates (Costar, Product No. 387) were coated with 30 μL of Matrigel® GFR. Plates were spun for 1 minute at 1,500 rotations per minute (RPM) and incubated for 30 minutes at 30° C. Cells were then lifted from culture plates, counted and resuspended in DMEM/F12 media such that 30 μL of media was available for each well. Each well received 30,000 HPAEC and 5,000 differentiated cells.
Green labeling of HPAEC was performed using Nuclight Green Lentivirus, Essen/Sartorius #4475. 100 μL of transfection reagent was added to 5 mL of media and mixed. In another 5 mL of media, 10 μL of needed lentivirus was added and mixed. Both 5 mL preparations were then added together, mixed, and added to an approximately 70% confluent plate of HPAEC or pericytes. Plates were allowed grow overnight in incubator.
Media and lentivirus preparation was removed and replaced with fresh media, and plates were incubated overnight. Plates were incubated for one week, using 1 μg of puromycin in the media for daily media changes […]

Question: For Cc1ccc(NC(=O)c2ccc(CN3CCN(C)CC3)cc2)cc1Nc1nccc(-c2cccnc2)n1 [imatinib mesylate], which “tube formation and co-localization with HPAEC” value is on record?
Answer: did not
